In paper PMC6736568, “Discovery of Novel Anti-cryptosporidial Activities From Natural Products by in vitro High-Throughput Phenotypic Screening” (Frontiers in Microbiology, 2019):
Counter-ions that a name gives are not always drawn. Like-named read-outs stand apart in the source and are kept apart here.

Tests used:
Cryptosporidium parvum = assay: qRT-PCR assay of the growth of C. parvum in vitro in HCT-8 host cells (primary and secondary screening, EC50); type: cell-based; conditions: Cryptosporidium parvum, HCT-8; for inhibition at 10 µM: primary screening at 10 uM, read-out: Inhibition (%)
in vitro = conditions: for cytotoxicity at 41 h, 10 µM: human
[1] = primary screening at 10 uM, treated vs control

Row | SMILES | Hs18S ΔCT (HCT-8 host cells (Hs18S); human, 41 h, 10 μM) | inhibition at 10 µM (Cryptosporidium parvum) | cytotoxicity at 41 h, 10 µM (in vitro) | Hs18S ΔCT (HCT-8 host cells (Hs18S); [1]) | cytotoxicity at 10 µM (in vitro) | Hs18S ΔCT (HCT-8 host cells (Hs18S)) | inhibition at 3.3 µM (Cryptosporidium parvum; secondary screening at 3.3 uM, read-out: % Inhibition (3.3 uM))
1 | COC1=CC(=O)C=C(OC)C1=O [2,6-DIMETHOXYQUINONE] |  | -5.86% |  | -0.06 | -4.3% |  | 
2 | CC1=CC(=O)c2ccccc2C1=O [MENADIONE] | 0.49 | -2.86% | 29% |  |  |  | 
3 | COc1c2ccoc2cc2oc(=O)ccc12 [BERGAPTEN] |  | -22.3% |  | 0.06 | 4.3% |  | 
4 | NCCc1c[nH]cn1 [HISTAMINE DIHYDROCHLORIDE] |  | -20.6% |  |  | 1.3% | 0.02 | 
5 | CC(C)=CCC/C(C)=C/CC/C(C)=C/CC/C(C)=C/CC1=C(C)C(=O)c2ccccc2C1=O [MENAQUINONE-4] | 0.06 | -13.8% | 4.1% |  |  |  | 
6 | NC(C(=O)O)C(O)C(=O)O (stereo not drawn) [d,l-threo-3-HYDROXYASPARTIC ACID] | 0.16 | 17.8% | 10.7% |  |  |  | 
7 | O=c1cc(-c2ccc(O)cc2)oc2cc(O)cc(O)c12 [APIGENIN] | 0.06 | -44.6% | 3.9% |  |  |  | 
8 | Cn1c(=O)c2c(ncn2C)n(C)c1=O [CAFFEINE] |  | 3.94% |  |  | 16.9% | 0.27 | 
9 | C/C=C1\[C@H]2C=C(C)C[C@]1(N)c1ccc(=O)[nH]c1C2 [HUPERZINE A] |  | 37.6% |  | 0.19 | 12.4% |  | 
10 | CC[C@H]1[C@@H]2C[C@H]3[C@@H]4N(C)c5ccccc5[C@]45C[C@@H]([C@H]2[C@H]5O)N3[C@@H]1O [AJMALINE] |  | -1.24% |  | 0.10 | 6.9% |  | 
11 | CC(C)=CCC/C(C)=C/COc1ccc2ccc(=O)oc2c1 |  | 3.93% |  | 0.02 | 1.2% |  | 
12 | CCCCCCCCCCCCCCCCCCCCCCO [DOCOSANOL] | -0.38 | 24.4% | -30.5% |  |  |  | 
13 | Cc1nccc2c1[nH]c1cc(O)ccc12 [HARMOL HYDROCHLORIDE] |  | -55.1% |  | -0.14 | -10.1% |  | 
14 | COc1ccc2c3c1O[C@H]1C[C@@H](O)C=C[C@@]31CCN(C)C2 [GALANTAMINE] |  | 2.66% |  | -0.34 | -26.2% |  | 
15 | O=c1c(-c2ccc(O)cc2)coc2c([C@@H]3O[C@H](CO)[C@@H](O)[C@H](O)[C@H]3O)c(O)ccc12 [PUERARIN] |  | -23% | -37.4% | -0.46 |  |  | 
16 | OCc1c[nH]c2ccccc12 [INDOLE-3-CARBINOL] |  | 0.77% | -31.7% | -0.40 |  |  | 

Further lines, with some results ahead:

Row | Hs18S ΔCT (HCT-8 host cells (Hs18S); human, 41 h, 10 μM) | SMILES | inhibition at 10 µM (Cryptosporidium parvum) | cytotoxicity at 41 h, 10 µM (in vitro) | Hs18S ΔCT (HCT-8 host cells (Hs18S); [1]) | cytotoxicity at 10 µM (in vitro) | Hs18S ΔCT (HCT-8 host cells (Hs18S)) | inhibition at 3.3 µM (Cryptosporidium parvum; secondary screening at 3.3 uM, read-out: % Inhibition (3.3 uM))
17 | 0.09 | CC1=C(/C=C/C(C)=C/C=C/C(C)=C/CO)C(C)(C)CCC1 [RETINOL] | 6.73% | 6.3% |  |  |  | 
18 | -0.03 | Cc1ccc2c(c1)CC[C@H]1CC(=O)CC[C@]21C [13-METHYL-4,4-BISNOR-8,11,13-PODOCARPATRIEN-3-ONE] | -31.4% | -2% |  |  |  | 
19 | -0.30 | COc1cc(C/C=C/c2ccccc2)c(OC)cc1O [VIOLASTYRENE] | -23.6% | -23.3% |  |  |  | 
20 | 0.26 | COc1ccc(-c2cc(=O)c3c(OC)c(OC)c(OC)c(OC)c3o2)cc1OC [NOBILETIN] | 94.6% | 16.2% |  |  |  | -25%
21 | -0.10 | COc1c(CC(=O)c2cc3c(cc2O)OC(C)(C)C(O)C3)ccc2c1C=CC(C)(C)O2 (stereo not shown) [DIHYDROMUNDULETONE] | 4.35% | -7.4% |  |  |  | 
22 | -0.21 | COc1ccc2c(=O)c(OC)c(-c3ccccc3)oc2c1 [3,7-DIMETHOXYFLAVONE] | 49.7% | -15.4% |  |  |  | 
23 | -0.15 | O=C(CCc1ccc(O)cc1)c1c(O)cc(O)cc1O [PHLORETIN] | -5.73% | -10.8% |  |  |  | 
24 | -0.39 | O=C(O)c1cc(=O)[nH]c(=O)[nH]1 [OROTIC ACID] | 8.85% | -31.1% |  |  |  | 
25 | 0.08 | C=C1CC[C@@H]2[C@](C)(CO)[C@H](O)CC[C@@]2(C)[C@@H]1C/C=C1/C(=O)OC[C@H]1O [ANDROGRAPHOLIDE] | 38.8% | 5.3% |  |  |  | 
